No end group written: not given here.
Key:
[1] = biological target: T1, EphB1 (Homo sapiens, UniProt P54762); test: Ephrin-B1 Fc-induced EphB1 tyrosine phosphorylation in human aortic endothelial cells; format: cell-based; conditions: concentrations up to 200 μM
T1 construct: endogenous EphB1 tyrosine phosphorylation; endogenous in cells; host or cells: human aortic endothelial cells
T1 sequence (P54762 18-984): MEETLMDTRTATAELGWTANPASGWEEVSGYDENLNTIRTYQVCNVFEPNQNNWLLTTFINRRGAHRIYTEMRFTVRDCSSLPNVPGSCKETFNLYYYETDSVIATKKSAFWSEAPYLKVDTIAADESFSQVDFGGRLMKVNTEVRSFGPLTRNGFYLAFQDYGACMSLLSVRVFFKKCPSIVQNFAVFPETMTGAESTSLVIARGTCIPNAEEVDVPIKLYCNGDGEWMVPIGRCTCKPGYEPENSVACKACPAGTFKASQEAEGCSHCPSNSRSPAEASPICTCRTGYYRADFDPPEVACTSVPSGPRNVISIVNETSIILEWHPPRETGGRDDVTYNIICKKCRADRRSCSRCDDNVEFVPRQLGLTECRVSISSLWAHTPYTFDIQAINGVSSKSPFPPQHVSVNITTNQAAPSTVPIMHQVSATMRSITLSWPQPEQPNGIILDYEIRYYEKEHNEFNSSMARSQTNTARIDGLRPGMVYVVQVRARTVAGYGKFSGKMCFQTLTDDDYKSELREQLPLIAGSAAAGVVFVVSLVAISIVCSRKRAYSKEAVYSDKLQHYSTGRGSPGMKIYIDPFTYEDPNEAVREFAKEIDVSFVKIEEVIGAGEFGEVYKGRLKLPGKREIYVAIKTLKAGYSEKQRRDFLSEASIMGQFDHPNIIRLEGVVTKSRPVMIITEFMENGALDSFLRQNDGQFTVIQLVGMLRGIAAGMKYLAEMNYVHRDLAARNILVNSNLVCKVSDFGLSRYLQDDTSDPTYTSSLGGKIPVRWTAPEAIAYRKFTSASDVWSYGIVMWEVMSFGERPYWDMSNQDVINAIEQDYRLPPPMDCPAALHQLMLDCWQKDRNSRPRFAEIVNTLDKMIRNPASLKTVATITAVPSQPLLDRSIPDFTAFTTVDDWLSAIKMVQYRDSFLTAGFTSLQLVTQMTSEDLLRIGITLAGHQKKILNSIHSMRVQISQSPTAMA

[2] = test system: Eph receptor Fc proteins; test: Immobilized biotinylated peptides capturing Eph receptor Fc proteins on streptavidin plates; format: binding; conditions: A- and B-class Eph receptor Fc proteins
Method: To measure the specificity of peptide binding to Eph receptors, biotinylated peptides were immobilized on streptavidin-coated plates at 10 μM (Pierce Biotechnology, Rockford, Ill.) and incubated for 1 hr with different Eph ectodomain Fc fusion proteins at 2.5 μg/ml in binding buffer. Bound receptor was detected using an anti-Fc antibody coupled to alkaline phosphatase (Promega) with p-nitrophenylphosphate as substrate (Pierce). The background that was subtracted from the measurements was determined by omitting the Eph ectodomain.
Most of the peptides were synthesized with a biotin tag and immobilized on streptavidin plates to verify their ability to capture the EphB ectodomains used for their isolation.
Biotinylated peptides were immobilized on streptavidin-coated plates and used to capture Eph receptor Fc proteins. Bound receptor was detected using anti-Fc antibody coupled to alkaline phosphatase and was normalized to the value in the well with highest receptor binding.

[3] = test system: EphB receptors; test: Peptide pull-down of endogenous EphB receptors from lysates; format: binding; conditions: peptide on streptavidin beads; mouse brain or cultured cell lysates
Method: The ability of the peptides to bind in a stable manner, which is important for both targeting and competitive inhibition, was tested in pull-down experiments. For peptide pull-down experiments, cells in 60 cm plates at 70% confluency or adult mouse brain tissue were solubilized in pull-down buffer (50 mM HEPES pH 7.5, 150 mM NaCl, 10% glycerol, 1% Triton-X100, 5 mM KCl and 1 mM EDTA). Three μg of biotinylated peptide were incubated for 45-90 min with 5 μl streptavidin agarose beads (Sigma), unbound peptide was washed away, and the beads were incubated with the cell lysates for 45-90 min. Proteins bound to the beads were separated by SDS-polyacrylamide gel electrophoresis and probed by immunoblotting with EphB1, EphB2, or EphB4 antibodies. The EphB1 antibody (Santa Cruz) was detected with a secondary anti-goat IgG peroxidase-conjugated antibody (BioRad Laboratories). The EphB2 and EphB4 antibodies were affinity-purified polyclonal antibodies to GST fusion proteins containing approximately 100 amino acids from the carboxy-terminal tails of the EphB2 or EphB4 receptors (Noren, N. K. et al. 2004 PNAS USA 101:5583-5588; Holash, J. A. & Pasquale, E. B. 1995 Devel Biol 172:683-693) and were detected with a secondary anti-rabbit IgG peroxidase-conjugated antibody (Amersham Biosciences). […]

In the case of EWLSPNLAPSVR [SEQ ID NO 1], the “Inhibition of endogenous EphB1 tyrosine phosphorylation” value [1] is reported as “did not inhibit endogenous EphB1 tyrosine phosphorylation”, the “Eph receptor binding selectivity of immobilized biotinylated peptide” value [2] is reported as “bound selectively to EphB1” and the “Stable binding of EphB receptors in pull-down” value [3] is reported as “stably bind EphB receptors”.

From patent US7999069B2, “EphB receptor-binding peptides” (Sanford-Burnham Medical Research Institute, priority 2005, dated 2011)
